Assay results as given in ChEMBL document CHEMBL4699511, “Cedrol, a Sesquiterpene Alcohol, Enhances the Anticancer Efficacy of Temozolomide in Attenuating Drug Resistance via Regulation of the DNA Damage Response and MGMT Expression” (J Nat Prod, 2020).
Active and inactive are the calls of the source. The calls are words filed in the database; no cut-off is given here.

How the values were obtained:
RG2 [1] = assay: Induction of apoptosis in rat RG2 cells assessed as cleaved caspace-3 expression at 112.4 uM after 48 hrs by Western blot analysis (reference value: 1); assay type: functional
DBTRG-05MG [2] = assay: Induction of cell cycle arrest in human DBTRG-05MG cells assessed as accumulation at S phase at 112.4 uM after 12 hrs by propidium iodide staining based flow cytometric analysis (reference value: 22.76 +/- 1.56%); assay type: functional
RG2 [3] = assay: Induction of cell cycle arrest in rat RG2 cells assessed as accumulation at G2/M phase at 112.4 uM after 24 hrs by propidium iodide staining based flow cytometric analysis (reference value: 20.04 +/- 0.55%); assay type: functional
[4] = Synergistic cytotoxicity against rat CTX TNA2 cells assessed as combination index at 134.9 uM after 48 hrs in presence of 412.1 uM TMZ by MTT assay; assay type: cell-based; details: ctx tna2, 48 h
[5] = Synergistic cytotoxicity against rat CTX TNA2 cells assessed as combination index at 89.9 uM after 48 hrs in presence of 206 uM TMZ by MTT assay; assay type: cell-based; details: ctx tna2, 48 h
[6] = Synergistic cytotoxicity against rat CTX TNA2 cells assessed as combination index at 89.9 uM after 48 hrs in presence of 412.1 uM TMZ by MTT assay; assay type: cell-based; details: ctx tna2, 48 h
[7] = Effect on AKT expression in rat RG2 cells at 112.4uM after 48 hrs by Western blot analysis (reference value: 1); assay type: functional
DBTRG-05MG [8] = assay: Synergistic cytotoxicity against human DBTRG-05MG cells assessed as combination index at 112.4 uM after 48 hrs in presence of 206 uM TMZ by MTT assay; assay type: functional
[9] = Synergistic cytotoxicity against rat CTX TNA2 cells assessed as combination index at 134.9 uM after 48 hrs in presence of 515.1 uM TMZ by MTT assay; assay type: cell-based; details: ctx tna2, 48 h
RG2 [10] = assay: Synergistic cytotoxicity against rat RG2 cells assessed as combination index at 89.9 uM after 48 hrs in presence of 206 uM TMZ by MTT assay; assay type: functional
RG2 [11] = assay: Induction of cell cycle arrest in rat RG2 cells assessed as accumulation at G2/M phase at 112.4 uM after 6 hrs by propidium iodide staining based flow cytometric analysis (reference value: 20.04 +/- 0.55%); assay type: functional
[12] = Effect on AKT expression in rat RG2 cells at 112.4uM after 48 hrs in presence of TMZ by Western blot analysis (reference value: 1); assay type: functional
RG2 [13] = assay: Induction of DNA damage in rat RG2 cells assessed as ATR phosphorylation at ser428 residues at 112.4 uM after 48 hrs in presence of TMZ by Western blot analysis (reference value: 1); assay type: functional
DBTRG-05MG [14] = assay: Potentiation of TMZ-induced antitumor activity against human DBTRG-05MG cells xenografted in BALB/c nude mouse assessed as increase in survival time at 75 mg/kg, sc co-treated with TMZ for 18 days; assay type: functional, organism-based; details: time 18.0 day
RG2 [15] = assay: Inhibition of AKT phosphorylation at S473 residues in rat RG2 cells at 112.4uM after 48 hrs by Western blot analysis; assay type: cell-based
DBTRG-05MG [16] = assay: Induction of apoptosis in human DBTRG-05MG cells assessed as cleaved PARP expression at 112.4 uM after 48 hrs by Western blot analysis (reference value: 1); assay type: functional
RG2 [17] = assay: Induction of apoptosis in rat RG2 cells assessed as Bax expression at 112.4 uM after 48 hrs by Western blot analysis (reference value: 1); assay type: functional
RG2 [18] = assay: Synergistic cytotoxicity against rat RG2 cells assessed as combination index at 89.9 uM after 48 hrs in presence of 309 uM TMZ by MTT assay; assay type: functional
DBTRG-05MG [19] = assay: Induction of apoptosis in human DBTRG-05MG cells assessed as phosphorylated caspace-3 expression at 112.4 uM after 48 hrs in presence of TMZ by Western blot analysis (reference value: 1); assay type: functional
[20] = target: MAP kinase p38 (Homo sapiens) (UniProt O15264+Q15759+Q16539+P53778); assay: Inhibition of p38 phosphorylation at Tyr182 residues in human DBTRG-05MG cells at 112.4uM after 48 hrs in presence of TMZ by Western blot analysis (reference value: 1); assay type: cell-based
DBTRG-05MG [21] = assay: Induction of DNA damage in human DBTRG-05MG cells assessed as Chk2 phosphorylation at Thr68 residues at 112.4 uM after 48 hrs in presence of TMZ by Western blot analysis (reference value: 1); assay type: functional
RG2 [22] = assay: Inhibition of JNK phosphorylation at Thr183/Tyr185 residues in rat RG2 cells at 112.4uM after 48 hrs by Western blot analysis (reference value: 1); assay type: cell-based
RG2 [23] = assay: Induction of cell cycle arrest in rat RG2 cells assessed as accumulation at G0/G1 phase at 112.4 uM after 6 hrs in presence of TMZ by propidium iodide staining based flow cytometric analysis (reference value: 57.81 +/- 1.9%); assay type: functional
RG2 [24] = assay: Induction of cell cycle arrest in rat RG2 cells assessed as CyclinA expression at 112.4 uM after 48 hrs by Western blot analysis (reference value: 1); assay type: functional
[25] = Synergistic cytotoxicity against rat CTX TNA2 cells assessed as combination index at 89.9 uM after 48 hrs in presence of 309 uM TMZ by MTT assay; assay type: cell-based; details: ctx tna2, 48 h
RG2 [26] = assay: Induction of apoptosis in rat RG2 cells assessed as cleaved caspace-9 expression at 206 uM after 48 hrs by Western blot analysis (reference value: 1); assay type: functional
RG2 [27] = assay: Induction of DNA damage in rat RG2 cells assessed as H2A.X phosphorylation at ser139 at 206 uM after 48 hrs by Western blot analysis (reference value: 1); assay type: functional
DBTRG-05MG [28] = assay: Induction of cell cycle arrest in human DBTRG-05MG cells assessed as accumulation at G0/G1 phase at 206 uM after 24 hrs by propidium iodide staining based flow cytometric analysis (reference value: 47.16 +/- 1.55%); assay type: functional
DBTRG-05MG [29] = assay: Induction of cell cycle arrest in human DBTRG-05MG cells assessed as accumulation at S phase at 206 uM after 24 hrs by propidium iodide staining based flow cytometric analysis (reference value: 22.76 +/- 1.56%); assay type: functional
RG2 [30] = assay: Inhibition of ERK phosphorylation at Tyr204 residues in rat RG2 cells at 206 uM after 48 hrs by Western blot analysis (reference value: 1); assay type: cell-based
DBTRG-05MG [31] = assay: Induction of apoptosis in human DBTRG-05MG cells assessed as cleaved caspace-3 expression at 206 uM after 48 hrs by Western blot analysis (reference value: 1); assay type: functional
DBTRG-05MG [32] = assay: Induction of cell cycle arrest in human DBTRG-05MG cells assessed as accumulation at S phase at 206 uM after 48 hrs by propidium iodide staining based flow cytometric analysis (reference value: 22.76 +/- 1.56%); assay type: functional
[33] = Toxicity in BALB/c mouse xenografted with DBTRG-05MG cells assessed as reduction in body weight at 5 mg/kg, ip after 5 days measured every 2 days; assay type: organism-based; details: in vivo, 120 h, time 5 day

C[C@@H]1CC[C@H]2C(C)(C)[C@H]3C[C@@]12CC[C@@]3(C)O [CEDROL]
fold change (FC) (RG2 [1]): 1.6
Activity (DBTRG-05MG [2]): 14.32%
Activity (RG2 [3]): 18.42%
CI [4]: 1.13
CI [5]: 1.13
CI [6]: 1.11
fold change (FC) [7]: 0.6
CI (DBTRG-05MG [8]): 0.5
CI [9]: 0.88
CI (RG2 [10]): 0.98
Activity (RG2 [11]): 21.06%
fold change (FC) [12]: 0.4
fold change (FC) (RG2 [13]): 1.1
Activity (DBTRG-05MG [14]): Active
fold change (FC) (RG2 [15]): 0.8
fold change (FC) (DBTRG-05MG [16]): 1
fold change (FC) (RG2 [17]): 1.1
CI (RG2 [18]): 1.04
fold change (FC) (DBTRG-05MG [19]): 1.2
fold change (FC) [20]: 1.2
fold change (FC) (DBTRG-05MG [21]): 2.6
fold change (FC) (RG2 [22]): 0.7
Activity (RG2 [23]): 61.59%
fold change (FC) (RG2 [24]): 0.4
CI [25]: 1.13

Cn1nnc2c(C(N)=O)ncn2c1=O [TEMOZOLOMIDE]
fold change (FC) (RG2 [26]): 1.7
fold change (FC) (RG2 [27]): 1.1
Activity (DBTRG-05MG [28]): 31.03%
Activity (DBTRG-05MG [29]): 25.43%
fold change (FC) (RG2 [30]): 0.7
fold change (FC) (DBTRG-05MG [31]): 3.3
Activity (DBTRG-05MG [32]): 23.42%
Activity [33]: Non-Toxic
